From US20250235456A1, “METHODS OF USE FOR AZA-QUINAZOLINE COMPOUNDS” (Iambic Therapeutics, Inc., priority 2024, published 2025)

Experiments:
Format in all cases: biochemical
CDK4/Cyclin D1 = CDK4/Cyclin D1 (Homo sapiens (Human), UniProt P11802); assay: CDK4/Cyclin D1 CHEF Assay; settings: AQT; read-out: CDK4/CyclinD1 AQT IC50
From the text: CDK4/Cyclin D1 CHEF Assay
The purpose of CDK4/Cyclin Dl assay is to evaluate the inhibition (% inhibition and IC50 values) of small molecule inhibitors by using a Chelation-Enhance Fluorescence (CHEF) assay. In a CHEF assay, phosphorylation of a peptide substrate results in proportional increase in fluorescence. CHEF kinase assay use peptide substrates containing a synthetic alpha-amino acid with a side chain bearing an 8-hydroxyquinoline derivative (sulfonamido-oxide, Sox). Upon phosphorylation of a nearby serine, threonine or tyrosine and in the presence of Mg(II), the spectral properties of the Sox residue are altered, emitting 485 nm wavelength light when excited with a 360 nm wavelength light source. CDK4/Cyclin D1 catalyzes the phosphoryl transfer to the SOX-labeled substrate peptide AQT0258 from Assayquant Technologies. […] The reaction was initiated with the addition of substrate solution, following a 30-minute pre-incubation of enzyme and inhibitor at 22° C. in the reaction mix. Reactions were allowed to proceed for 3 hrs at 22° C., followed by fluorescence read of the reaction. The IC50 determinations were made from a plot of the fractional velocity as a function of inhibitor concentration fit to the 4 parameters IC50 equation.

CDK1/Cyclin B1 = CDK1/Cyclin B1 (Homo sapiens (Human), UniProt P06493); assay: CDK1/Cyclin B1 ADP-Glo Kinase Assay
Sequence of CDK1/Cyclin B1 (P06493 whole entry): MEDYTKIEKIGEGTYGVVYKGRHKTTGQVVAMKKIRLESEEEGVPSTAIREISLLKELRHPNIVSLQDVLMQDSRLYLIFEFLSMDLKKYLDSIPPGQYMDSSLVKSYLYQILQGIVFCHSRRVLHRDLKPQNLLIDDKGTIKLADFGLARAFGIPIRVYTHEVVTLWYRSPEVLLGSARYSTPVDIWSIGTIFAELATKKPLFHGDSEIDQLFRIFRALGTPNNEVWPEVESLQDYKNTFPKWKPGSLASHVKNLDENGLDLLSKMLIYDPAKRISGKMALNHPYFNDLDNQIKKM
Sequence of CDK1/Cyclin B1 (P14635 whole entry partner): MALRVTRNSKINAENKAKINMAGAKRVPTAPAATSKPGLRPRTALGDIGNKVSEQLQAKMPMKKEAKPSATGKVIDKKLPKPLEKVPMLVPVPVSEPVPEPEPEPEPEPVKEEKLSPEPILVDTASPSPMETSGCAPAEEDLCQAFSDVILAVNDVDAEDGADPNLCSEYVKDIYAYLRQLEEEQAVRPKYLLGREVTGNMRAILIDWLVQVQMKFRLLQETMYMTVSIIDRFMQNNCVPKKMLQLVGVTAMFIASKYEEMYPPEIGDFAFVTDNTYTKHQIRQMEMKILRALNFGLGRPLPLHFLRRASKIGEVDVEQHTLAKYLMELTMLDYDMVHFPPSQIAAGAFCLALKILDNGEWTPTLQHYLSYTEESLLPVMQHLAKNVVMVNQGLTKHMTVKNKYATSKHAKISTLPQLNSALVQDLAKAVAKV
Description: CDK1/Cyclin B1 ADP-Glo Kinase Assay
(§1) The purpose of CDK1/Cyclin Bi assay is to evaluate the inhibition (% inhibition and IC50 values) of small molecule inhibitors by using a Luminescent based ADP-Glo assay. CDK1/Cyclin B1 catalyzes the production of ADP from ATP. ADP-Glo assay monitors ADP producing biochemical reactions. ADP-Glo is performed in 2 steps upon completion of kinase reaction: a combined termination of kinase reaction and depletion of remaining ATP in the first step, and conversion of generated ADP to ATP and the newly produced ATP to light output using luciferase/luciferin reaction in the second step. The luminescent signal generated is proportional to the ADP concentration produced and is correlated with the kinase activity. CDK1/Cyclin B1 was purchased from Carna (Cat 04-102). […] The assay was initiated with the addition of ATP-containing substrate solution, following a 30-minute pre-incubation of enzyme and inhibitor at room temperature in the reaction mixture. The reaction was stopped after 90 minutes at room temperature by the addition of 10 μL of ADP-GLO Reagent. After a 90 minute incubation, 20 μL of Kinase Detection Reagent was added. Samples were incubated for 40 minutes, after which plate well luminescence was measured on a Envision microplate reader. The IC50 determinations were made from a plot of the fractional velocity as a function of inhibitor concentration fit to the 4 parameters IC50 equation.

CDK6/Cyclin D3 = CDK6/Cyclin D3 (Homo sapiens (Human), UniProt Q00534); assay: CDK6/Cyclin D3 ADP-Glo Kinase Assay; settings: read-out: CDK6/CyclinD3 IC50
Sequence of CDK6/Cyclin D3 (Q00534 whole entry): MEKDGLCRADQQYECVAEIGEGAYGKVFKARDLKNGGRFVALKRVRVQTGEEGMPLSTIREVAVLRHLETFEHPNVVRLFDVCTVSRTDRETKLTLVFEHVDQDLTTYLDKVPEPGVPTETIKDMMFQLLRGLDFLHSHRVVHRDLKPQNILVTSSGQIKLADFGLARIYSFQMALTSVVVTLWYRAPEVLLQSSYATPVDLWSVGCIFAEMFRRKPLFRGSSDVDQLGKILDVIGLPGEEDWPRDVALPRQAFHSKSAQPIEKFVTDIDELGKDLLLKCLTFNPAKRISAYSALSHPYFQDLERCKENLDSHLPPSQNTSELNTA
Sequence of CDK6/Cyclin D3 (P30281 whole entry partner): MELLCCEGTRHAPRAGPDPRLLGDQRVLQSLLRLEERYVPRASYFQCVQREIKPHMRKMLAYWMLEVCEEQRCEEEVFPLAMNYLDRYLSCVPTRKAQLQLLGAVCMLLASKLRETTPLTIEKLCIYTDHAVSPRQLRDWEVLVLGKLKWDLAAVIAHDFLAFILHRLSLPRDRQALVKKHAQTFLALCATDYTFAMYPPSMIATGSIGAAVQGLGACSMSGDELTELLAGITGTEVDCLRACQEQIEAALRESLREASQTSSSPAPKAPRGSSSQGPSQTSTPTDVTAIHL
Description: CDK6/Cyclin D3 ADP-Glo Kinase Assay
as §1, with “of the CDK6/Cyclin D3” for “of CDK1/Cyclin Bi”, “values) in the presence” for “values)”, “assay. CDK6/Cyclin D3” for “assay. CDK1/Cyclin B1”, “activity. CDK6/Cychin D3” for “activity. CDK1/Cyclin B1”, “from Carna.” for “from Carna (Cat 04-102).”, “a 90-minute” for “a 90 minute”

Sequence of CDK4/Cyclin D1 (P11802 whole entry, species assumed): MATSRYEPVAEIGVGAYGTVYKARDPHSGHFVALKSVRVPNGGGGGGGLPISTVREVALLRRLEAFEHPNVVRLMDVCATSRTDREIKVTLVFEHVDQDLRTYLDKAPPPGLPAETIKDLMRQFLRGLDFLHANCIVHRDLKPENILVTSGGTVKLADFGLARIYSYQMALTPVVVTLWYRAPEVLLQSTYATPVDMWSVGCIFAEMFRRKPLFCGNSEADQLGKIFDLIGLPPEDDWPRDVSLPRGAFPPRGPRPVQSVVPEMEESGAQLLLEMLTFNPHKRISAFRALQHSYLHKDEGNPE
Sequence of CDK4/Cyclin D1 (P24385 whole entry partner, species assumed): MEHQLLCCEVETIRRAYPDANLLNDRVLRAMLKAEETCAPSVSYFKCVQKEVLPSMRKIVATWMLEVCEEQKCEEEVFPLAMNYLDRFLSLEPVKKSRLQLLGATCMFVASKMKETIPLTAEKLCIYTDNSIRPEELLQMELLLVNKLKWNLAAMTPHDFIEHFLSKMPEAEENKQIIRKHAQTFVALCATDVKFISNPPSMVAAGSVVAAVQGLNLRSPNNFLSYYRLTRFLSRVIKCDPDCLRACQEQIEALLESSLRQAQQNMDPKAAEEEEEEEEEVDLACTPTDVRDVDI

Row | SMILES | IC50 (CDK4/Cyclin D1) | IC50 (CDK1/Cyclin B1) | IC50 (CDK6/Cyclin D3)
1 | Cc1cc2cnc(Nc3cc4c(cc3F)CN(S(C)(=O)=O)C4)nc2c(N2CC3(CCNC3)C2)n1 [Compound 39, N-(6-fluoro-2-(methylsulfonyl)isoindolin-5-yl)-6-methyl-8-(2,6-diazaspiro [3.4]octan-2-yl)pyrido[3,4-d]pyrimidin-2-amine] | 0.2 to 0.5 µM | > 2 µM | > 2 µM
2 | CS(=O)(=O)N1CCC(Nc2ncc3cc(C(F)F)nc(N4CC5(CNCCC5(F)F)C4)c3n2)CC1 [Compound 65] | < 0.2 µM | < 0.2 µM | < 0.2 µM
3 | Cc1cc2cnc(NC3CCN(S(=O)(=O)C4CC4)CC3)nc2c(N2CC3(CCNCC3(F)F)C2)n1 [Compound 61, N-(1-(cyclopropylsulfonyl)piperidin-4-yl)-8-(5,5-difluoro-2,7-diazaspiro[3.5]nonan-2-yl)-6-methylpyrido[3,4-d]pyrimidin-2-amine] | < 0.2 µM | < 0.2 µM | < 0.2 µM
4 | CCS(=O)(=O)N1CCC(Nc2ncc3cc(C)nc(N4CC(F)(F)C5(CNC5)C4)c3n2)CC1 [Compound 95, 8-(8,8-difluoro-2,6-diazaspiro[3.4]octan-6-yl)-N-(1-(ethylsulfonyl)piperidin-4-yl)-6-methylpyrido[3,4-d]pyrimidin-2-amine] | < 0.2 µM | < 0.2 µM | < 0.2 µM
5 | Cc1cc2cnc(NC3CCN(S(C)(=O)=O)CC3)nc2c(C2CC(O)(C3CC3)C2)n1 (stereo not drawn) [Compound 88, 1-cyclopropyl-3-(6-methyl-2-((1-(methylsulfonyl)piperidin-4-yl)amino)pyrido[3,4-d]pyrimidin-8-yl)cyclobutan-1-ol] | < 0.2 µM | 0.2 to 0.5 µM | < 0.2 µM

The remaining lines, values ahead:

Row | IC50 (CDK4/Cyclin D1) | IC50 (CDK1/Cyclin B1) | IC50 (CDK6/Cyclin D3) | SMILES
6 | < 0.2 µM | < 0.2 µM | < 0.2 µM | Cc1cc2cnc(NC3CCN(S(=O)(=O)c4cnn(C)c4)CC3)nc2c(N2CC(F)(F)C3(CNC3)C2)n1 [Compound 89, 8-(8,8-difluoro-2,6-diazaspiro[3.4]octan-6-yl)-6-methyl-N-(1-((1-methyl-1H-pyrazol-4-yl)sulfonyl)piperidin-4-yl)pyrido[3,4-d]pyrimidin-2-amine]
7 | < 0.2 µM | 0.2 to 0.5 µM | 0.2 to 0.5 µM | Cc1cc2cnc(NC3CCN(S(=O)(=O)C4CC4)CC3)nc2c(N2CC3(C2)CC(C)(O)C3)n1 [Compound 78, 2-(2-((1-(cyclopropylsulfonyl)piperidin-4-yl)amino)-6-methylpyrido[3,4-d]pyrimidin-8-yl)-6-methyl-2-azaspiro[3.3]heptan-6-ol]
8 | < 0.2 µM | < 0.2 µM | < 0.2 µM | Cc1cc2cnc(NC3CCN(S(C)(=O)=O)CC3)nc2c(N2CC(O)(C(F)F)C2)n1 [Compound 91, 3-(difluoromethyl)-1-(6-methyl-2-((1-(methylsulfonyl)piperidin-4-yl)amino)pyrido[3,4-d]pyrimidin-8-yl)azetidin-3-ol]
9 | < 0.2 µM | 0.2 to 0.5 µM | < 0.2 µM | COC1CC2(C1)CN(c1nc(C)cc3cnc(NC4CCN(S(C)(=O)=O)CC4)nc13)C2 [Compound 76, 8-(6-methoxy-2-azaspiro[3.3]heptan-2-yl)-6-methyl-N-(1-(methylsulfonyl)piperidin-4-yl)pyrido[3,4-d]pyrimidin-2-amine]
10 | < 0.2 µM | > 2 µM | < 0.2 µM | Cc1cc2cnc(N[C@H]3CC[C@H](CN(C)C)CC3)nc2c(N2CCC3(C2)CC3(F)F)n1 (stereo partly drawn) [Compound 40, 8-(1,1-difluoro-5-azaspiro[2.4]heptan-5-yl)-N-((1r,4r)-4-((dimethylamino)methyl)cyclohexyl)-6-methylpyrido[3,4-d]pyrimidin-2-amine]
11 | < 0.2 µM | 0.2 to 0.5 µM | 0.2 to 0.5 µM | Cc1cc2cnc(NC3CCN(S(C)(=O)=O)CC3)nc2c(N2CC3(C2)CC(C)(O)C3)n1 [Compound 79, 6-methyl-2-(6-methyl-2-((1-(methylsulfonyl)piperidin-4-yl)amino)pyrido[3,4-d]pyrimidin-8-yl)-2-azaspiro[3.3]heptan-6-ol]
